{"source": "patent US20240130368A1", "about": "“HERBICIDAL COMPOSITION” (Nippon Soda Co., Ltd., priority 2021, published 2024)", "format_in_all_cases": "in vivo", "key": {"Ambrosia artemisiifolia": {"system": "Ambrosia artemisiifolia", "test": "Test Example 1: seeds on filter paper moistened with chemical solution, herbicidal effect visually evaluated", "conditions": "Ambrosia artemisiifolia, 144 h, visually evaluated 6 days after treatment", "method": "As the compound (1), 1-methoxy-3-methyl-6-(1,1-dioxido-8-(trifluoromethyl)thiochroman-5-yl)-7-oxa-3,4-diazabicyclo[4.1.0]hept-4-en-2-one (Compound (I-3)) was used.\nThe compound (I) or compound (II) was prepared into a 5% emulsion using DMF (containing 1.5% Tween) and diluted with water to a prescribed dosage concentration. Commercially available preparations were dissolved in water and adjusted to a prescribed dosage concentration.\nSeeds were soaked in 0.6% sodium hypochlorite for a predetermined time for surface sterilization and washed with water for use (seed disinfection). Seeds of Ambrosia artemisiifolia were used for the test.\nFilter paper was placed on a cup (diameter: 10 cm, height: 4 cm) with a lid and moistened with 8 ml of chemical solution, and seeds were sown thereon, and after covering with a lid, grown in a constant temperature room.\nThe herbicidal effects were visually evaluated, 6 days after the treatment, as the herbicidal effect (%), by comparing with a state of an untreated group using a total of 21 scores of withering index from 0 to 20 (0: mortality rate equivalent to that of the untreated group, 20: mortality rate of 100%).\n(§1) In addition, the expected values of the herbicidal effects were calculated from the herbicidal effects in a case where the compound (I) alone was applied and the herbicidal effects in a case where the compound (II) alone was applied by using the Colby's formula (Colby, S. R., Calculating synergistic and antagonistic responses of herbicide combinations, Weeds, 15, pp. 20-22 (1967)).\nM indicates an herbicidal effect (%) in the application of the compound (I) alone, N indicates an herbicidal effect (%) in the application of the compound (II) alone, and E indicates an expected value (%) of the herbicidal effect in the combined application of the compound (T) and the compound (TT). When the actual measured value (%) of the herbicidal effect in the combined application of the compound (I) and the compound (II) is greater than the expected value E, it can be regarded that the combined application of the compound (I) and the compound (II) has a synergistic effect."}, "[1]": {"system": "multidrug-resistant Alopecurus myosuroides", "test": "Test Example 5: spraying on the soil surface, herbicidal effect from above ground weight", "conditions": "Compound (I-3) alone, sprayed on the soil surface, seven weeks after spraying, Alopecurus myosuroides multidrug-resistant strain", "method": "(§2) POA allylphenyl ether (4.1 parts by weight), POE-POP glycol (1 part by weight), POE sorbitan laurate (0.8 parts by weight), glycerin (2.6 parts by weight), dimethylformamide (65.9 parts by weight), N-methylpyrrolidone (5.1 parts by weight), cyclohexanone (15.4 parts by weight), and aromatic hydrocarbons (5.1 parts by weight) were mixed and dissolved to prepare an emulsion. The active ingredient (4 mg) of the composition of the present invention was dissolved in this emulsion (100 μL) to prepare a test emulsion. It should be noted that POA means “polyoxyalkylene”, POE means “polyoxyethylene”, and POP means “polyoxypropylene”.\n(§3) For the evaluation of the herbicidal effects, the above ground weights of weeds in the untreated and treated areas were measured for each weed 3 weeks after spraying treatment, and the herbicidal effect (%) was calculated by the following calculation formula.\n(§4) Herbicidal effect (%)=[(above ground weight of weeds in untreated area)−(above ground weight of weeds in treated area)/(above ground weight of weeds in untreated area)]×100\n(§5) A test emulsion was prepared in the same manner as in Test Example 4.\n(§6) A 300 cm^2 pot was filled with soil, and seeds of Triticum aestivum, multidrug-resistant Alopecurus myosuroides, Lolium multiflorum and Avena fatua were sown into the surface layer, and covered with soil to a thickness of 0.5 to 1 cm. The above test emulsion was diluted so that the amount of the active ingredient became a predetermined amount, and sprayed on the soil surface at a spray water volume of 250 L per hectare, followed by growth in an outdoor environment.\n(§7) Seven weeks after spraying, the evaluation was carried out in the same manner as in Test Example 4, except that the above ground weights of weeds in the untreated and treated areas were measured for each weed.\n(§8) The following grass species were used as grass species to be controlled [scientific names]. • Blackgrass * [Alopecurus myosuroides] • Italian ryegrass [Lolium multiflorum] • Wild oat [Avena fatua]"}, "Avena fatua": {"system": "Avena fatua", "test": "Test Example 5: spraying on the soil surface, herbicidal effect from above ground weight", "conditions": "Compound (I-3) alone, sprayed on the soil surface, seven weeks after spraying", "method": "as §2, §3, §4, §5, §6, §7, §8"}, "Lolium multiflorum": {"system": "Lolium multiflorum", "test": "Test Example 5: spraying on the soil surface, herbicidal effect from above ground weight", "conditions": "Compound (I-3) alone, sprayed on the soil surface, seven weeks after spraying", "method": "as §2, §3, §4, §5, §6, §7, §8"}, "Senna obtusifolia": {"system": "Senna obtusifolia", "test": "Test Example 4: foliar spraying treatment, herbicidal effect from above ground weight", "conditions": "Compound (I-3) alone, 63 gai/ha, 3 weeks after spraying", "method": "as §2\n(§9) A 300 cm^2 pot was filled with soil, and seeds of Zea mays, Setaria faberi, Sorghum halepense, Brachiaria platyphylla, Amaranthus palmeri, Senna obtusifolia and Ipomoea hederacea were sown into the surface layer, and then grown in a greenhouse after being covered lightly with soil. When each plant grew to a plant height of 7 to 11 cm, it was used for the test. The test emulsion was diluted so that the amount of the active ingredient became a predetermined amount, and sprayed on the foliage with a small sprayer at a spray water volume of 250 L per hectare.\nas §3, §1\n(§10) M indicates an herbicidal effect (%) in the application of the compound (1) alone, N indicates an herbicidal effect (%) in the application of the compound (II) alone, and E indicates an expected value (%) of the herbicidal effect in the combined application of the compound (I) and the compound (II). When the actual measured value (%) of the herbicidal effect in the combined application of the compound (I) and the compound (II) is greater than the expected value E, it can be regarded that the combined application of the compound (1) and the compound (II) has a synergistic effect.\nas §4\n(§11) The following grass species were used as grass species to be controlled [scientific names]. • Giant foxtail [Setaria faberi] • Johnson grass [Sorghum halepense] • Broadleaf signalgrass [Brachiaria platyphylla] • Palmer amaranth [Amaranthus palmeri] • Sicklepod [Senna obtusifolia] • Morning glory [Ipomoea hederacea]"}, "Ipomoea hederacea": {"system": "Ipomoea hederacea", "test": "Test Example 4: foliar spraying treatment, herbicidal effect from above ground weight", "conditions": "Compound (I-3) alone, 63 gai/ha, 3 weeks after spraying", "method": "as §2, §9, §3, §1, §10, §4, §11"}, "Amaranthus palmeri": {"system": "Amaranthus palmeri", "test": "Test Example 4: foliar spraying treatment, herbicidal effect from above ground weight", "conditions": "Compound (I-3) alone, 63 gai/ha, 3 weeks after spraying", "method": "as §2, §9, §3, §1, §10, §4, §11"}, "Brachiaria platyphylla": {"system": "Brachiaria platyphylla", "test": "Test Example 4: foliar spraying treatment, herbicidal effect from above ground weight", "conditions": "Compound (I-3) alone, 63 gai/ha, 3 weeks after spraying", "method": "as §2, §9, §3, §1, §10, §4, §11"}, "Setaria faberi": {"system": "Setaria faberi", "test": "Test Example 4: foliar spraying treatment, herbicidal effect from above ground weight", "conditions": "Compound (I-3) alone, 63 gai/ha, 3 weeks after spraying", "method": "as §2, §9, §3, §1, §10, §4, §11"}, "Sorghum halepense": {"system": "Sorghum halepense", "test": "Test Example 4: foliar spraying treatment, herbicidal effect from above ground weight", "conditions": "Compound (I-3) alone, 63 gai/ha, 3 weeks after spraying", "method": "as §2, §9, §3, §1, §10, §4, §11"}, "Digitaria ciliaris": {"system": "Digitaria ciliaris", "test": "Test Example 2: seeds on filter paper moistened with chemical solution, herbicidal effect visually evaluated", "conditions": "Compound (I-3) alone, 0.2 ppm, 6 days after the treatment"}}, "note": "Read-outs that look alike come from different tables or passages of the source."}
{"smiles": "COC12OC1(c1ccc(C(F)(F)F)c3c1CCCS3(=O)=O)C=NN(C)C2=O", "note": "(stereo not drawn) [Compound (I-3), 1-methoxy-3-methyl-6-(1,1-dioxido-8-(trifluoromethyl)thiochroman-5-yl)-7-oxa-3,4-diazabicyclo[4.1.0]hept-4-en-2-one]", "values": [{"measurement": "pest or weed control at 3.1 ppm", "setting": "Ambrosia artemisiifolia; read-out: Herbicidal effect (%), applied alone, amount of active ingredient 3.1 ppm", "value": 65, "unit": "%"}, {"measurement": "pest or weed control at 3.1 ppm", "setting": "Ambrosia artemisiifolia; read-out: Herbicidal effect (%), compound applied alone, amount of active ingredient 3.1 ppm", "value": 70, "unit": "%"}, {"measurement": "Actual measured value of herbicidal effect", "setting": "[1]; 63 gai/ha", "value": 0, "unit": "%"}, {"measurement": "Actual measured value of herbicidal effect", "setting": "[1]; 125 gai/ha", "value": 30, "unit": "%"}, {"measurement": "Actual measured value of herbicidal effect", "setting": "Avena fatua; 63 gai/ha", "value": 0, "unit": "%"}, {"measurement": "Actual measured value of herbicidal effect", "setting": "Avena fatua; 125 gai/ha", "value": 20, "unit": "%"}, {"measurement": "Actual measured value of herbicidal effect", "setting": "Lolium multiflorum; 63 gai/ha", "value": 60, "unit": "%"}, {"measurement": "Actual measured value of herbicidal effect", "setting": "Lolium multiflorum; 125 gai/ha", "value": 80, "unit": "%"}, {"measurement": "Actual measured value of herbicidal effect", "setting": "Senna obtusifolia", "value": 60, "unit": "%"}, {"measurement": "Actual measured value of herbicidal effect", "setting": "Ipomoea hederacea", "value": 70, "unit": "%"}, {"measurement": "Actual measured value of herbicidal effect", "setting": "Amaranthus palmeri", "value": 100, "unit": "%"}, {"measurement": "Actual measured value of herbicidal effect", "setting": "Brachiaria platyphylla", "value": 80, "unit": "%"}, {"measurement": "Actual measured value of herbicidal effect", "setting": "Setaria faberi", "value": 80, "unit": "%"}, {"measurement": "Actual measured value of herbicidal effect", "setting": "Sorghum halepense", "value": 80, "unit": "%"}, {"measurement": "Herbicidal effect", "setting": "Digitaria ciliaris", "value": 75, "unit": "%"}]}
